Results published in patent publication US10209241B2, “High throughput sensitization detection devices and methods” (Rutgers, The State University of New Jersey, priority 2011, dated 2019).

Tested on: Mutz DCs with T-cells
Assay: T-cell activation by sensitized dendritic cells in microfluidic well-trap device (Fluo-4 calcium flux, time lapse microscopy)
Format: cell-based
Conditions: Mutz DCs sensitized with PPD, Fluo-4 labeled T-cells in the chamber, time lapse microscopy (FIG. 5)
Text: T cells are isolated from the peripheral blood mononuclear fraction by positive selection using CD3 microbeads and magnetic cell separator (Miltenyi Biotec Inc., Auburn, Calif.), following the manufacturer's instructions. The T cells are frozen in liquid nitrogen and thawed prior to use. The T-cells are labeled with a calcium sensitive fluorescent dye, Fluo-4. The present method measures the increase in calcium flux into T-cells, as they form immunological synapses with dendritic cells. For labeling, the T cells are suspended at a density of 1-2×10^6 cells/ml in the medium supplemented with the fluo4 dye diluted to a final concentration of 1 μM. The cells are incubated at 37° C. for 20 minutes, and then washed twice to remove the remaining dye in the medium. The labeled T cells are suspended in the fresh medium prior to loading in the microdevice.
The device is first primed with PBS. Any bubbles, remaining from the priming process, are removed by placing the device in a vacuum dessicater for 1-2 minutes. Once primed, the device is flushed with media. Dendritic cells (DCs) are introduced into the device from inlet 1, by means of a 2.5 μL pipette. Additional head is provided by topping off the pipette tip attached to the device to the required level. The set-screw valves may be employed to adjust the flow to allow the cells to slow down enough so they can settle. […]

Nc1ccc(N)cc1 [PPD]
T-cell clustering around dendritic cells and fluorescence (calcium flux) over time: Clustering accompanied by increase in fluorescence is observed
